Test results published in US20040029823A1, “Antisense oligonucleotide compositions and methods for the modulation of JNK proteins” (priority 1997, published 2004).
Values joined by “and” are separate entries in the source; they are usually repeats but may differ in a detail not shown here. Equal entries are not always repeated. Where two headings read alike, the source gives them in different places. Strand notation (5' to 3'): a small letter for the sugar, then the base; units joined by * are phosphorothioate-linked, units joined directly phosphodiester-linked; [ ] holds rarer units or linkages, { } end groups; capitals alone tell only the bases. Where a SMILES comes first, the peptide text is derived from it. The star is where a group is joined. e = 2'-O-(2-methoxyethyl) (MOE); [5mC] = 5-methylcytosine; Cbz = O=C(OCc1ccccc1)*; d = 2'-deoxy (DNA); CH2F = FC*

Assays:
[1] = test system: HUVEC; assay: Apoptosis in HUVEC (percent hypodiploid cells, flow cytometry); assay type: cell-based, human; conditions: for effect on JNK2 oligonucleotide-induced cell death (apoptosis): HUVEC treated with JNK2 oligonucleotide plus the inhibitor
[2] = test system: JNK2 mRNA; assay: Northern assay of JNK2 mRNA expression in A549 cells; assay type: cell-based, human; conditions: for Normalized % Control: JNK2 mRNA, chemically modified oligonucleotides
[3] = test system: MDA-MB-231 tumors; assay: MDA-MB-231 human breast adenocarcinoma tumors in nude mice; assay type: in vivo; conditions: MDA-MB-231 tumors, 25 mg/kg intravenous once daily
From the text: Approximately 5×10^6 breast adenocarcinoma cells (cell line MDA-MB-231; American Type Culture Collection, Richmond, Va., No. ATCC HTB-26) were implanted subcutaneously in the right inner thigh of nude mice (n=6 for each of three sets of mice). Oligonucleotides ISIS 15346 (JNK1, SEQ ID NO: 16) and 15353 (JNK2, SEQ ID NO: 31) were suspended in saline and administered once daily to two sets of mice on the first day the tumor volume was about […]. A saline-only (0.9% NaCl) solution was given to a third set of animals as a control. Oligonucleotides were given by intravenous injection at a dosage of 25 mg/kg. Tumor size was measured and tumor volume was calculated on days 12, 19, 26 and 33 following tumor cell inoculation.

[4] = test system: LNCaP tumor; assay: LNCaP human prostate cancer xenograft in castrated nude mice (tumor volume, serum PSA); assay type: in vivo; conditions: 12.5 mg/kg i.p. once daily
Method: LNCaP cells (human prostate cancer cells purchased from American Type Culture Collection, Rockville, Md.) were maintained in RPMI 1640 (Terry Fox Laboratory, Vancouver, BC, Canada) with 5% fetal bovine serum (GTBCO, Burlington, ON, Canada). Six to eight week old male athymic nude mice (BALB/c strain) were purchased from Harlan Sprague Dawley, Inc. (Indianapolis, Ind.). 1×10^6 LNCaP cells were inoculated subcutaneously with 0.1 ml […] (Becton Dickinson Labware, Bedford, Mass.) in the flank region of the mice. Blood samples were obtained with tail vein incisions of mice and serum PSA levels were determined by an enzymatic immunoassay kit (Abbott IMX, Montreal, PQ, Canada) according to the manufacturer's protocol. When serum PSA levels increased to around 100 ng/ml, 4-6 weeks post-injection, mice were castrated via a scrotal approach. Mice were treated with 12.5 mg/kg oligonucleotide intraperitoneally once daily, beginning one day after castration. Tumor volume and serum PSA levels were measured once weekly.
Time to progression to androgen-independent PSA regulation was defined as the duration of time after castration for serum PSA levels to return to levels equal to or greater than pre-castration levels. Data points were expressed as average PSA levels±standard error of the mean based on seven measurements. The time to progression to androgen independence after castration was delayed in the mice treated with JNK2 antisense by 100% (10 weeks vs. 5 weeks for control group).

[5] = test system: JNK1 mRNA; assay: Northern assay of JNK1 mRNA expression in A549 cells; assay type: cell-based, human; conditions: for Normalized % Control / RNA % Control: JNK1 mRNA; for Normalized % Control: chemically modified oligonucleotides; for RNA % Control: 300 nM for 20 hours then 200 nM for 4 hours
Method: (§1) In order to evaluate the activity of potential JNK-modulating oligonucleotides, human lung carcinoma cell line A549 (American Type Culture Collection, Rockville, Md. No. ATCC CCL-185) cells or other cell lines as indicated in the Examples, were grown and treated with oligonucleotides or control solutions as detailed below. After harvesting, cellular extracts were prepared and examined for specific JNK mRNA levels or JNK protein levels (i.e., Northern or Western assays, respectively). In all cases, “% expression” refers to the amount of JNK-specific signal in an oligonucleotide-treated cell relative to an untreated cell (or a cell treated with a control solution that lacks oligonucleotide), and “% inhibition” is calculated as
100%−% Expression =% Inhibition.
Northern Assays: The mRNA expression of each JNK protein was determined by using a nucleic acid probe specifically hybridizable thereto. Nucleic acid probes specific for JNK1, JNK2 and JNK3 are described in Examples 3, 4 and 5, respectively. The probes were radiolabelled by means well known in the art (see, e.g., Short Protocols in Molecular Biology, 2nd Ed., Ausubel et al., Eds., John Wiley & Sons, New York, 1992, pages 3-11 to 2-3-44 and 4-17 to 4-18; Ruth, Chapter 6 In: Methods in Molecular Biology, Vol. 26: Protocols for Oligonucleotide Conjugates, Agrawal, ed., Humana Press Inc., Totowa, N.J., 1994, pages 167-185; and Chapter 10 In: Molecular Cloning: A Laboratory Manual, 2nd Ed., Sambrook et al., Eds., pages 10.1-10.70). The blots were stripped and reprobed with a ^32P-labeled glyceraldehyde 3-phosphate dehydrogenase (G3PDH) probe (Clontech Laboratories, Inc., Palo Alto, Calif.) in order to confirm equal loading of RNA and to allow the levels of JNK transcripts to be normalized with regard to the G3PDH signals.
A549 cells were grown in T-75 flasks until 80-90% confluent. At this time, the cells were washed twice with 10 mL of media (DMEM), followed by the addition of 5 mL of DMEM containing 20 μg/mL of LIPOFECTIN™ (i.e., 1:1 (w/w) DOTMA/DOPE, Life Technologies, Gaithersburg, Md.; DOTMA=N-[1-(2,3-dioleyoxy)propyl]-N,N,N-trimethylammonium chloride; DOPE=dioleoyl phosphatidylethanolamine). The oligonucleotides were added from a 10 μM stock solution to a final concentration of 400 nM, and the two solutions were mixed by swirling the flasks. As a control, cells were treated with LIPOFECTIN™ without oligonucleotide under the same conditions and for the same times as the oligonucleotide-treated samples. After 4 hours at 37° C., the medium was replaced with fresh DMEM containing 10% serum. The cells were allowed to recover for 18 hours. Total cellular RNA was then extracted in guanidinium, subject to gel electrophoresis and transferred to a filter according to techniques known in the art (see, e.g., Chapter 7 In: Molecular Cloning: A Laboratory Manual, 2nd Ed., Sambrook et al., Eds., pages 7.1-7.87, and Short Protocols in Molecular Biology, 2nd Ed., Ausubel et al., Eds., John Wiley & Sons, New York, 1992, pages 2-24 to 2-30 and 4-14 to 4-29). Filters were typically hybridized overnight to a probe specific for the particular JNK gene of interest in hybridization buffer (25 mM KPO4, pH 7.4; 5×SSC; 5× Denhardt's solution, 100 μg/ml Salmon sperm DNA and 50% formamide) (Alahari et al., Nucl. Acids Res., 1993, 21, 4079). This was followed by two washes with 1×SSC, 0.1% SDS and two washes with 0.25×SSC, 0.1% SDS. Hybridizing bands were visualized by exposure to X-OMAT AR film and quantitated using a PHOSPHORIMAGER™ essentially according to the manufacturer's instructions (Molecular Dynamics, Sunnyvale, Calif.)
B. JNK1-specific probes: In initial screenings of a set of oligonucleotides derived from the JNK1 sequence (Table 2) for biological activity, a cDNA clone of JNK1 (Derijard et al., Cell, 1994, 76, 1025) was radiolabeled and used as a JNK1-specific probe in Northern blots. […]

[6] = test system: JNK1 protein; assay: Western assay of JNK1 protein levels in A549 cells; assay type: cell-based, human; conditions: 300 nM for 20 hours then 200 nM for 4 hours
Method: as §1
Western Assays: A549 cells were grown and treated with oligonucleotides as described above. Cells were lysed, and protein extracts were electrophoresed (SDS-PAGE) and transferred to nitrocellulose filters by means known in the art (see, e.g., Chapter 18 In: Molecular Cloning: A Laboratory Manual, 2nd Ed., Sambrook et al., Eds., pages 18.34, 18.47-18.54 and 18.60-18.75)). The amount of each JNK protein was determined by using a primary antibody that specifically recognizes the appropriate JNK protein. The primary antibodies specific for each JNK protein are described in the appropriate Examples. The primary antibodies were detected by means well known in the art (see, e.g., Short Protocols in Molecular Biology, 2nd Ed., Ausubel et al., Eds., John Wiley & Sons, New York, 1992, pages 10-33 to 10-35; and Chapter 18 In: Molecular Cloning: A Laboratory Manual, 2nd Ed., Sambrook et al., Eds., pages 18.1-18.75 and 18.86-18.88) and quantitated using a PHOSPHORIMAGER™ essentially according to the manufacturer's instructions (Molecular Dynamics, Sunnyvale, Calif.).
F. Western Assays: In order to assess the effect of oligonucleotides targeted to JNK1 mRNAs on JNK1 protein levels, Western assays were performed essentially as described above in Example 2, with the following exception(s) and/or modification(s). A primary antibody that specifically binds to JNK1 (catalog No. sc-474-G) was purchased from Santa Cruz Biotechnology, Inc. (Santa Cruz, Calif.; other JNK1-specific antibodies are available from StressGen Biotechnologies, Inc., Victoria, BC, Canada; and Research Diagnostics, Inc., Flanders, N.J.). In this experiment, cells were grown and treated with oligonucleotide at 300 nM for the initial 20 hours and then at 200 nM for 4 hours. At t=48 h, aliquots were removed for Northern and Western analyses, and fresh media was added to the cells. Aliquots for analysis were also taken at t=72 h. The samples from t=48 h and t=72 h were analyzed using the Northern and Western assays described above.

C^ST^SC^ST^SC^ST^SG^ST^SA^SG^SG^SC^SC^SC^SG^SC^ST^ST^SG^SG (antisense CTCTCTGTAGGCCCGCTTGG; DNA, all phosphorothioate, methylation of C not given here) [ISIS 15346, JNK1 gapmer: P═S, 2′-MOE wings; P═S, 2′-deoxy core]
percent hypodiploid cells (a measure of apoptosis) ([1]; HUVEC, Oligo + Cyclohexamide): 8% | percent hypodiploid cells (a measure of apoptosis) ([1]; HUVEC, Oligo + TNFa (10 ng/ml)): 14% | percent hypodiploid cells (a measure of apoptosis) ([1]; HUVEC, Oligo + z-VAD.fmk): 5% | percent hypodiploid cells (a measure of apoptosis) ([1]; HUVEC, Oligo alone): 13%

COC(=O)C[C@H](NC(=O)[C@H](C)NC(=O)[C@@H](NC(=O)OCc1ccccc1)C(C)C)C(=O)CF [z-FAD.fmk, z-VAD.fmk, reference compound] (Cbz-Val-Ala-Asp(OMe)-CH2F)
effect on JNK2 oligonucleotide-induced cell death (apoptosis) [1]: decreased

15353 (antisense eG*eT*e[5mC]*e[5mC]*eG*dG*dG*dC*dC*dA*dG*dG*dC*dC*eA*eA*eA*eG*eT*e[5mC]) [compound 15353]
Normalized % Control ([2]; dose 100 nM): 56.7% | Normalized % Control ([2]; dose 400 nM): 21.2% | inhibition of JNK2 mRNA expression ([2]; chemically modified derivatives of ISIS 12560, 400 nM (text to Table 12)): approximately 80% | tumor growth compared to the saline control [3]: inhibited tumor growth | Serum PSA levels ([4]; 0 weeks post-castration): 84 ng/mL | Tumor volume ([4]; 0 weeks post-castration): 203 mm^3 | Serum PSA levels ([4]; 1 week post-castration): 9 ng/mL | Tumor volume ([4]; 1 week post-castration): 149 mm^3 | Serum PSA levels ([4]; 2 weeks post-castration): 11 ng/mL | Tumor volume ([4]; 2 weeks post-castration): 119 mm^3 | Serum PSA levels ([4]; 3 weeks post-castration): 10 ng/mL | Tumor volume ([4]; 3 weeks post-castration): 128 mm^3 | Serum PSA levels ([4]; 4 weeks post-castration): 15 ng/mL | Tumor volume ([4]; 4 weeks post-castration): 118 mm^3 | Serum PSA levels ([4]; 5 weeks post-castration): 20 ng/mL | Tumor volume ([4]; 5 weeks post-castration): 159 mm^3 | Serum PSA levels ([4]; 6 weeks post-castration): 25 ng/mL | Tumor volume ([4]; 6 weeks post-castration): 166 mm^3 | Serum PSA levels ([4]; 7 weeks post-castration): 34 ng/mL | Tumor volume ([4]; 7 weeks post-castration): 196 mm^3 | Serum PSA levels ([4]; 8 weeks post-castration): 47 ng/mL | Tumor volume ([4]; 8 weeks post-castration): 239 mm^3 | Serum PSA levels ([4]; 9 weeks post-castration): 63 ng/mL | Tumor volume ([4]; 9 weeks post-castration): 307 mm^3 | Serum PSA levels ([4]; 10 weeks post-castration): 87 ng/mL | Tumor volume ([4]; 10 weeks post-castration): 422 mm^3

GTGCGCGCGAGCCCGAAATC (phosphorothioate, 2'-MOE gapmer, further chemistry not given here) [ISIS 18078, scrambled control for ISIS 15353; 2′-methoxyethoxy gapmer, phosphorothioate throughout, reference compound]
percent hypodiploid cells (a measure of apoptosis) [1]: 11% and 12% and 9%

C[C@@H]1C[C@@H]([C@H](O)CC2CC(=O)NC(=O)C2)C(=O)[C@@H](C)C1 [cyclohexamide, reference compound]
effect on JNK2 oligonucleotide-induced cell death (apoptosis) [1]: no effect

15346 (antisense CTCTCTGTAGGCCCGCTTGG; sugars from the 5' end e5 d9 e6, [5mC] at 1, 3, 5, 16, all phosphorothioate, methylation of C not given here) [compound 15346]
Normalized % Control ([5]; dose 100 nM): 22.6% | Normalized % Control ([5]; dose 400 nM): 11.0% | RNA % Control ([5]; t = 48 h): 4.3% | RNA % Control ([5]; t = 72 h): 10.6% | inhibition of JNK1 mRNA expression ([5]; chemically modified derivatives of ISIS 12539, 400 nM (Table 5)): at least 88% | Protein % Control ([6]; t = 48 h): 42.7% | Protein % Control ([6]; t = 72 h): 25.7% | tumor growth compared to the saline control [3]: inhibited tumor growth
